Where two headings read alike, the source gives them in different places.
Experiments:
PI3Kγ (p120γ) = molecular target: T1, PI3Kγ (p120γ) (Homo sapiens, UniProt P48736); assay: Inhibition of PI3K kinase activity (ADP Glo), PI3Kγ; conditions: read-out: biochemical potency (PI3Kγ IC50)
T1 construct: purchased Promega V1761
Outline: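 Recombinant p120γ (8 nM, 2× stock) was preincubated with compound for 1 h at rt in HEPES pH 7.4, NaCl, MgCl2 and 0.05% BSA. Reaction was started with PIP2 (0.1 mg/ml, 2×) and ATP (50 μM, 2×) and ran 60 min at rt. ADP formed was read by ADP-Glo luminescence, and IC50 came from a 4-parameter fit.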

PI3Kγ = molecular target: T2, PI3Kγ (Homo sapiens, UniProt P48736); assay: PI3Kγ cellular assay in THP-1 cells (AKT pS473 AlphaLISA); type: cell-based
T2 construct: host or cells: THP-1
Outline: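 Serum-starved THP-1 cells (1.8×10^5/well, serum-free DMEM) treated with compounds from 4 nM to 30 μM in 2% DMSO, then stimulated and lysed.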

[1] = Table 1, rhMCP-1 stimulated AKT pS473, read-out: cellular potency (PI3Kγ IC50)
[2] = Table 2, rhMCP-1 stimulated AKT pS473, read-out: cellular potency (PI3Kγ IC50)

T1 sequence (P48736 whole entry): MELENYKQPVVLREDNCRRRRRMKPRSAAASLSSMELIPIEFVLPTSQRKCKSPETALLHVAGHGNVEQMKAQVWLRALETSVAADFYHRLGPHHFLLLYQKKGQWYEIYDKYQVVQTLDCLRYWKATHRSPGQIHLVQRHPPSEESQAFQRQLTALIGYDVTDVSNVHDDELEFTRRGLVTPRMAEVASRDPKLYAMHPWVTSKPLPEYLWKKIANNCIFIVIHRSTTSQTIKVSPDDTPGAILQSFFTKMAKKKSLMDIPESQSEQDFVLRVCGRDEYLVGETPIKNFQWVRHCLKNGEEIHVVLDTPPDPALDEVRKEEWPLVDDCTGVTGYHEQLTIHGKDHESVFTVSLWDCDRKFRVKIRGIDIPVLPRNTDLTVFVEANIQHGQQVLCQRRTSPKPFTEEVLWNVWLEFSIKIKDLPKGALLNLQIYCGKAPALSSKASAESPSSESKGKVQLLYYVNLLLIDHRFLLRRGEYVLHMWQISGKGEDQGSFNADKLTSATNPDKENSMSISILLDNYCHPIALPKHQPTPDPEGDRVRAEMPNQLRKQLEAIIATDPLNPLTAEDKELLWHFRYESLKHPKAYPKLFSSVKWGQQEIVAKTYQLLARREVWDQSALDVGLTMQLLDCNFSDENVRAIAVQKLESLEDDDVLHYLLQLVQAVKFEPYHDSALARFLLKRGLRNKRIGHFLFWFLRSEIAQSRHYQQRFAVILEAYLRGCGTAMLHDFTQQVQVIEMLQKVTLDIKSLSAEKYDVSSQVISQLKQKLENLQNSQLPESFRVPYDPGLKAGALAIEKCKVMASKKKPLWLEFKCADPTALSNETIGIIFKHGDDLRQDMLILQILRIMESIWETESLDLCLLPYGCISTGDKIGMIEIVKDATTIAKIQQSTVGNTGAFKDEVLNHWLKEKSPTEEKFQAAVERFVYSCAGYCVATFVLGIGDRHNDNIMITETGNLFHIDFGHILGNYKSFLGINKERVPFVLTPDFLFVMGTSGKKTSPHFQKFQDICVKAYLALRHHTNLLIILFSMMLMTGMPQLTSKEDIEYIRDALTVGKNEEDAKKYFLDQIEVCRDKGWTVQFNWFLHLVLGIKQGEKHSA
T2 sequence (P48736 whole entry): as above

IC50 (PI3Kγ (p120γ); Table 1, p120γ) [µM] | IC50 (PI3Kγ; [1]) [µM] | IC50 (PI3Kγ (p120γ); Table 2, p120γ) [µM] | IC50 (PI3Kγ; [2]) [µM] | Compound
< 0.1 | < 0.1 | – | – | C[C@@H](C1CC1)N1Cc2cc(-c3ccn4nc(N)c(C(=O)N[C@H]5CC[C@@](C)(O)CC5)c4n3)cc(N3CCOCC3)c2C1=O [Example 154, 2-Amino-5-{2-[(1S)-1-cyclopropylethyl]-7-(morpholin-4-yl)-1-oxo-2,3-dihydro-1H-isoindol-5-yl}-N-[cis-4-hydroxy-4-methylcyclohexyl]pyrazolo[1,5-a]pyrimidine-3-carboxamide]
< 0.1 | < 0.1 | – | – | C[C@@H](C1CC1)N1Cc2cc(-c3ccn4nc(N)c(C(=O)NC5CC5)c4n3)cc(OCC(F)(F)F)c2C1=O [Example 155, 2-Amino-N-cyclopropyl-5-{2-[(1S)-1-cyclopropylethyl]-1-oxo-7-(2,2,2-trifluoroethoxy)-2,3-dihydro-1H-isoindol-5-yl}pyrazolo[1,5-a]pyrimidine-3-carboxamide]
< 0.1 | < 0.1 | – | – | C[C@H](CO)NC(=O)c1c(N)nn2ccc(-c3cc4c(c(OCC(F)(F)F)c3)C(=O)N([C@@H](C)C3CC3)C4)nc12 [Example 156, 2-Amino-5-{2-[(1S)-1-cyclopropylethyl]-1-oxo-7-(2,2,2-trifluoroethoxy)-2,3-dihydro-1H-isoindol-5-yl}-N-[(2R)-1-hydroxypropan-2-yl]pyrazolo[1,5-a]pyrimidine-3-carboxamide]
< 0.1 | < 0.1 | – | – | C[C@@H](C1CC1)N1Cc2cc(-c3ccn4nc(N)c(C(=O)NC5CC5)c4n3)cc(OC(F)F)c2C1=O [Example 158, 2-Amino-N-cyclopropyl-5-{2-[(1S)-1-cyclopropylethyl]-7-(difluoromethoxy)-1-oxo-2,3-dihydro-1H-isoindol-5-yl}pyrazolo[1,5-a]pyrimidine-3-carboxamide]
< 0.1 | < 0.1 | – | – | C[C@@H](C1CC1)N1Cc2cc(-c3ccn4nc(N)c(C(=O)N[C@@H](CO)C5CC5)c4n3)cc(OC(F)F)c2C1=O [Example 159, 2-Amino-N-[(1R)-1-cyclopropyl-2-hydroxyethyl]-5-{2-[(1S)-1-cyclopropylethyl]-7-(difluoromethoxy)-1-oxo-2,3-dihydro-1H-isoindol-5-yl}pyrazolo[1,5-a]pyrimidine-3-carboxamide]
< 0.1 | < 0.1 | – | – | C[C@@H](C1CC1)N1Cc2cc(-c3ccn4nc(N)c(C(=O)N[C@H]5CC[C@@](C)(O)CC5)c4n3)cc(OC(F)F)c2C1=O [Example 160, 2-Amino-5-{2-[(1S)-1-cyclopropylethyl]-7-(difluoromethoxy)-1-oxo-2,3-dihydro-1H-isoindol-5-yl}-N-[cis-4-hydroxy-4-methylcyclohexyl]pyrazolo[1,5-a]pyrimidine-3-carboxamide]
< 0.1 | < 0.1 | – | – | C[C@@H](C1CC1)N1Cc2cc(-c3ccn4nc(N)c(C(=O)Nc5cccnc5)c4n3)cc(OC(F)F)c2C1=O [Example 161, 2-Amino-5-{2-[(1S)-1-cyclopropylethyl]-7-(difluoromethoxy)-1-oxo-2,3-dihydro-1H-isoindol-5-yl}-N-(pyridin-3-yl)pyrazolo[1,5-a]pyrimidine-3-carboxamide]
< 0.1 | < 0.1 | – | – | C[C@@H](C1CC1)N1Cc2cc(-c3ccn4nc(N)c(C(=O)NC5CC5)c4n3)cc(Cl)c2C1=O [Example 162, 2-Amino-5-{7-chloro-2-[(1S)-1-cyclopropylethyl]-1-oxo-2,3-dihydro-1H-isoindol-5-yl}-N-cyclopropylpyrazolo[1,5-a]pyrimidine-3-carboxamide]
< 0.1 | < 0.1 | – | – | C[C@H](CO)NC(=O)c1c(N)nn2ccc(-c3cc(Cl)c4c(c3)CN([C@@H](C)C3CC3)C4=O)nc12 [Example 163, 2-Amino-5-{7-chloro-2-[(1S)-1-cyclopropylethyl]-1-oxo-2,3-dihydro-1H-isoindol-5-yl}-N-[(2R)-1-hydroxypropan-2-yl]pyrazolo[1,5-a]pyrimidine-3-carboxamide]
< 0.1 | < 0.1 | – | – | CC[C@H](N1Cc2cc(-c3ccn4nc(N)c(C(=O)N[C@H](C)CO)c4n3)cc(Cl)c2C1=O)C(F)(F)F [Example 164, 2-Amino-5-{7-chloro-1-oxo-2-[(2S)-1,1,1-trifluorobutan-2-yl]-2,3-dihydro-1H-isoindol-5-yl}-N-[(2R)-1-hydroxypropan-2-yl]pyrazolo[1,5-a]pyrimidine-3-carboxamide]
< 0.1 | < 0.1 | – | – | C[C@@H](C1CC1)N1Cc2cc(-c3ccn4nc(N)c(C(=O)NC5CC5)c4n3)cc(C3CC3)c2C1=O [Example 165, 2-Amino-N-cyclopropyl-5-{7-cyclopropyl-2-[(1S)-1-cyclopropylethyl]-1-oxo-2,3-dihydro-1H-isoindol-5-yl}pyrazolo[1,5-a]pyrimidine-3-carboxamide]
< 0.1 | < 0.1 | – | – | C[C@H](CO)NC(=O)c1c(N)nn2ccc(-c3cc4c(c(C5CC5)c3)C(=O)N([C@@H](C)C3CC3)C4)nc12 [Example 166, 2-Amino-5-{7-cyclopropyl-2-[(1S)-1-cyclopropylethyl]-1-oxo-2,3-dihydro-1H-isoindol-5-yl}-N-[(2R)-1-hydroxypropan-2-yl]pyrazolo[1,5-a]pyrimidine-3-carboxamide]
< 0.1 | < 0.1 | – | – | C[C@@H](C1CC1)N1Cc2cc(-c3ccn4nc(N)c(C(=O)N[C@@H](CO)C5CC5)c4n3)cc(C3CC3)c2C1=O [Example 167, 2-Amino-5-{7-cyclopropyl-2-[(1S)-1-cyclopropylethyl]-1-oxo-2,3-dihydro-1H-isoindol-5-yl}-N-[(1R)-1-cyclopropyl-2-hydroxyethyl]pyrazolo[1,5-a]pyrimidine-3-carboxamide]
< 0.1 | < 0.1 | – | – | CCc1cc(-c2ccn3nc(N)c(C(=O)N[C@@H](CO)C4CC4)c3n2)cc2c1C(=O)N([C@@H](C)C1CC1)C2 [Example 168, 2-Amino-N-[(1R)-1-cyclopropyl-2-hydroxyethyl]-5-{2-[(1S)-1-cyclopropylethyl]-7-ethyl-1-oxo-2,3-dihydro-1H-isoindol-5-yl}pyrazolo[1,5-a]pyrimidine-3-carboxamide]
< 0.1 | < 0.1 | – | – | CC(C)c1cc(-c2ccn3nc(N)c(C(=O)NC4CC4)c3n2)cc2c1C(=O)N([C@@H](C)C1CC1)C2 [Example 169, 2-Amino-N-cyclopropyl-5-{2-[(1S)-1-cyclopropylethyl]-1-oxo-7-(propan-2-yl)-2,3-dihydro-1H-isoindol-5-yl}pyrazolo[1,5-a]pyrimidine-3-carboxamide]
< 0.1 | < 0.1 | – | – | C[C@@H](C1CC1)N1Cc2cc(-c3ccn4nc(N)c(C(=O)NC5CC5)c4n3)cc(C(C)(C)O)c2C1=O [Example 170, 2-Amino-N-cyclopropyl-5-{2-[(1S)-1-cyclopropylethyl]-7-(2-hydroxypropan-2-yl)-1-oxo-2,3-dihydro-1H-isoindol-5-yl}pyrazolo[1,5-a]pyrimidine-3-carboxamide]
< 0.1 | < 0.1 | – | – | C[C@@H](C1CC1)N1Cc2cc(-c3ccn4nc(N)c(C(=O)N[C@H]5CC[C@@](C)(O)CC5)c4n3)cc(C(C)(C)O)c2C1=O [Example 171, 2-Amino-5-{2-[(1S)-1-cyclopropylethyl]-7-(2-hydroxypropan-2-yl)-1-oxo-2,3-dihydro-1H-isoindol-5-yl}-N-[cis-4-hydroxy-4-methylcyclohexyl]pyrazolo[1,5-a]pyrimidine-3-carboxamide]
– | – | < 0.1 | 0.1 to 1 | Cc1cc(-c2ccn3nc(N)c(C(=O)N[C@H]4CC[C@H](O)CC4)c3n2)cc2c1C(=O)N([C@@H](C)C1CC1)C2 [Example 172]
– | – | < 0.1 | 0.1 to 1 | Cc1cc(-c2ccn3nc(N)c(C(=O)N[C@@H](C)c4ccncc4)c3n2)cc2c1C(=O)N([C@@H](C)C1CC1)C2 [Example 173]
– | – | < 0.1 | 0.1 to 1 | Cc1cc(-c2ccn3nc(N)c(C(=O)N4CCC4CO)c3n2)cc2c1C(=O)N(C(C)C1CC1)C2 (centres unmarked) [Example 174]
– | – | < 0.1 | 0.1 to 1 | Cc1cc(-c2ccn3nc(N)c(C(=O)N[C@H](C)c4cnn(C)c4)c3n2)cc2c1C(=O)N([C@@H](C)C1CC1)C2 [Example 175]
– | – | < 0.1 | 0.1 to 1 | Cc1cc(-c2ccn3nc(N)c(C(=O)N[C@@H]4CCOC4)c3n2)cc2c1C(=O)N([C@@H](C)C1CC1)C2 [Example 176]
– | – | < 0.1 | 0.1 to 1 | Cc1cc(-c2ccn3nc(N)c(C(=O)N[C@H]4CCOC4)c3n2)cc2c1C(=O)N([C@@H](C)C1CC1)C2 [Example 177]
– | – | < 0.1 | 0.1 to 1 | Cc1cc(-c2ccn3nc(N)c(C(=O)N[C@@H](C)c4nccs4)c3n2)cc2c1C(=O)N([C@@H](C)C1CC1)C2 [Example 178]
– | – | < 0.1 | 0.1 to 1 | Cc1cc(-c2ccn3nc(N)c(C(=O)NC4CCNCC4)c3n2)cc2c1C(=O)N([C@@H](C)C1CC1)C2 [Example 179]
– | – | < 0.1 | 0.1 to 1 | Cc1cc(-c2ccn3nc(N)c(C(=O)NC4COC4)c3n2)cc2c1C(=O)N([C@@H](C)C1CC1)C2 [Example 180]
– | – | < 0.1 | 0.1 to 1 | Cc1cc(-c2ccn3nc(N)c(C(=O)NC4CCOCC4)c3n2)cc2c1C(=O)N([C@@H](C)C1CC1)C2 [Example 181]

Compound | IC50 (PI3Kγ (p120γ); Table 1, p120γ) [µM] | IC50 (PI3Kγ; [1]) [µM] | IC50 (PI3Kγ (p120γ); Table 2, p120γ) [µM] | IC50 (PI3Kγ; [2]) [µM]
C[C@@H](C1CC1)N1Cc2cc(-c3ccn4nc(N)c(C(=O)NC5CC5)c4n3)cc(OC3CC(F)(F)C3)c2C1=O [Example 157, 2-Amino-N-cyclopropyl-5-{2-[(1S)-1-cyclopropylethyl]-7-(3,3-difluorocyclobutoxy)-1-oxo-2,3-dihydro-1H-isoindol-5-yl}pyrazolo[1,5-a]pyrimidine-3-carboxamide] | < 0.1 | < 0.1 | – | –
